Columns and labels:
[1] = tested on: PTPN2; test: HiBiT-Degradation B16F10.4 PTPN2; type: cell-based; details: B16F10.4 cells, 24.0 hours
[2] = target: T1, PTPN2 (Homo sapiens, UniProt P17706); test: HiBiT-Degradation 293T.109 PTPN2 (Nano-Glo HiBiT Lytic Assay); type: cell-based; details: 293T.109 (HiBiT-PTPN2) cells, 24.0 hours
T1 construct: expressed in transfected cells; host or cells: 293T (293T.109 HiBiT-PTPN2 line; parental 293T WT from ATCC)
T1 sequence (P17706 1-415): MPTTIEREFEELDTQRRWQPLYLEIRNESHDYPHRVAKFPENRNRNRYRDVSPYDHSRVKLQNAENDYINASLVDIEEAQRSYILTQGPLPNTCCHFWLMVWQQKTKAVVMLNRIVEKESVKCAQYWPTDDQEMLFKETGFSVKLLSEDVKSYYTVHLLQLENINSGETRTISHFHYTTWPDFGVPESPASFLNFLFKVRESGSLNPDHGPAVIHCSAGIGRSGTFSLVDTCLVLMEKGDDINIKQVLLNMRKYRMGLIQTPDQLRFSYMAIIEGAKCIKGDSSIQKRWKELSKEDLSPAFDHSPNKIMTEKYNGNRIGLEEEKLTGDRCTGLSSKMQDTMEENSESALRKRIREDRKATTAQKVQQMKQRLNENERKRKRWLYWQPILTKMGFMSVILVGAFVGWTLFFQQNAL
Summary of the method: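 293T cells ectopically expressing N-terminally HiBiT-tagged PTPN2 were seeded at 5000 cells/well. They were treated with an 11-point half-log titration from 10 μM, in duplicate, for 24 hours at 37° C., 5% CO2. Remaining tagged PTPN2 was quantified by lytic HiBiT luminescence against untreated and no-reagent controls.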

| SMILES | DC50 [1] [nM] | DC50 [2] [nM] |
| --- | --- | --- |
| Cn1c(=O)n(C2CCC(=O)NC2=O)c2ccc(Nc3ccc(CC(=O)Nc4ccc5c(F)c(N6CC(=O)NS6(=O)=O)c(O)cc5c4)cn3)cc21 (stereo not shown) [Example 168, N-(6-(1,1-dioxido-4-oxo-1,2,5-thiadiazolidin-2-yl)-5-fluoro-7-hydroxynaphthalen-2-yl)-2-(6-((1-(2,6-dioxopiperidin-3-yl)-3-methyl-2-oxo-2,3-dihydro-1H-benzo[d]imidazol-5-yl)amino)pyridin-3-yl)acetamide] | 10 to 50 | 50 to 200 |
| Cc1cc(CC(=O)Nc2ccc3c(F)c(N4CC(=O)NS4(=O)=O)c(O)cc3c2)ccc1Nc1ccc2c(c1)n(C)c(=O)n2C1CCC(=O)NC1=O (stereo not shown) [Example 169, N-(6-(1,1-dioxido-4-oxo-1,2,5-thiadiazolidin-2-yl)-5-fluoro-7-hydroxynaphthalen-2-yl)-2-(4-((1-(2,6-dioxopiperidin-3-yl)-3-methyl-2-oxo-2,3-dihydro-1H-benzo[d]imidazol-5-yl)amino)-3-methylphenyl)acetamide] | 10 to 50 | 10 to 50 |
| Cn1c(=O)n(C2CCC(=O)NC2=O)c2ccc(C3CCN(CCC(=O)Nc4ccc5c(F)c(N6CC(=O)NS6(=O)=O)c(O)cc5c4)CC3)cc21 (stereo not shown) [Example 170, N-(6-(1,1-dioxido-4-oxo-1,2,5-thiadiazolidin-2-yl)-5-fluoro-7-hydroxynaphthalen-2-yl)-3-(4-(1-(2,6-dioxopiperidin-3-yl)-3-methyl-2-oxo-2,3-dihydro-1H-benzo[d]imidazol-5-yl)piperidin-1-yl)propanamide] | 50 to 200 | 10 to 50 |
| Cn1c(=O)n(C2CCC(=O)NC2=O)c2ccc(-c3cnn(CCC(=O)Nc4ccc5c(F)c(N6CC(=O)NS6(=O)=O)c(O)cc5c4)c3)cc21 (stereo not shown) [Example 173, N-(6-(1,1-dioxido-4-oxo-1,2,5-thiadiazolidin-2-yl)-5-fluoro-7-hydroxynaphthalen-2-yl)-3-(4-(1-(2,6-dioxopiperidin-3-yl)-3-methyl-2-oxo-2,3-dihydro-1H-benzo[d]imidazol-5-yl)-1H-pyrazol-1-yl)propanamide] | 50 to 200 | 10 to 50 |
| Cn1c(=O)n(C2CCC(=O)NC2=O)c2ccc(C3CCN(CC4CC4C(=O)Nc4ccc5c(F)c(N6CC(=O)NS6(=O)=O)c(O)cc5c4)CC3)cc21 (stereo not shown) [Example 176, N-(6-(1,1-dioxido-4-oxo-1,2,5-thiadiazolidin-2-yl)-5-fluoro-7-hydroxynaphthalen-2-yl)-2-((4-(1-(2,6-dioxopiperidin-3-yl)-3-methyl-2-oxo-2,3-dihydro-1H-benzo[d]imidazol-5-yl)piperidin-1-yl)methyl)cyclopropane-1-carboxamide] | 50 to 200 | 10 to 50 |
| C[C@@H]1CC(c2ccc3c(c2)n(C)c(=O)n3C2CCC(=O)NC2=O)CCN1CC(=O)Nc1ccc2c(F)c(N3CC(=O)NS3(=O)=O)c(O)cc2c1 (stereo partly drawn) [Example 178, N-(6-(1,1-dioxido-4-oxo-1,2,5-thiadiazolidin-2-yl)-5-fluoro-7-hydroxynaphthalen-2-yl)-2-((2R)-4-(1-(2,6-dioxopiperidin-3-yl)-3-methyl-2-oxo-2,3-dihydro-1H-benzo[d]imidazol-5-yl)-2-methylpiperidin-1-yl)acetamide] | 50 to 200 | 10 to 50 |
| Cn1nc(C2CCC(=O)NC2=O)c2ccc([C@H]3CC[C@@H](CC(=O)Nc4ccc5c(F)c(N6CC(=O)NS6(=O)=O)c(O)cc5c4)CC3)cc21 (stereo partly drawn) [Example 180, N-(6-(1,1-dioxido-4-oxo-1,2,5-thiadiazolidin-2-yl)-5-fluoro-7-hydroxynaphthalen-2-yl)-2-((cis)-4-(3-(2,6-dioxopiperidin-3-yl)-1-methyl-1H-indazol-6-yl)cyclohexyl)acetamide] | 50 to 200 | 10 to 50 |
| Cn1c(=O)n(C2CCC(=O)NC2=O)c2ccc(N3CCC(CCNC(=O)Nc4ccc5c(F)c(N6CC(=O)NS6(=O)=O)c(O)cc5c4)CC3)cc21 (stereo not shown) [Example 181] | 50 to 200 | 10 to 50 |
| Cn1c(=O)n(C2CCC(=O)NC2=O)c2ccc(C3CCN([C@@H](CO)C(=O)Nc4ccc5c(F)c(N6CC(=O)NS6(=O)=O)c(O)cc5c4)CC3)cc21 (stereo partly drawn) [Example 184, (2S)—N-(6-(1,1-dioxido-4-oxo-1,2,5-thiadiazolidin-2-yl)-5-fluoro-7-hydroxynaphthalen-2-yl)-2-(4-(1-(2,6-dioxopiperidin-3-yl)-3-methyl-2-oxo-2,3-dihydro-1H-benzo[d]imidazol-5-yl)piperidin-1-yl)-3-hydroxypropanamide] | 50 to 200 | 10 to 50 |
| Cc1cc(CC(=O)Nc2ccc3c(F)c(N4CC(=O)NS4(=O)=O)c(O)cc3c2)ccc1Nc1ccc2c(C3CCC(=O)NC3=O)nn(C)c2c1 (stereo not shown) [Example 185, N-(6-(1,1-dioxido-4-oxo-1,2,5-thiadiazolidin-2-yl)-5-fluoro-7-hydroxynaphthalen-2-yl)-2-(4-((3-(2,6-dioxopiperidin-3-yl)-1-methyl-1H-indazol-6-yl)amino)-3-methylphenyl)acetamide] | 50 to 200 | 10 to 50 |

The remaining lines, values ahead:

| DC50 [1] [nM] | DC50 [2] [nM] | SMILES |
| --- | --- | --- |
| 50 to 200 | 50 to 200 | Cn1c(=O)n(C2CCC(=O)NC2=O)c2ccc(C3CCN(CC(=O)N4CC(Nc5ccc6cc(O)c(N7CC(=O)NS7(=O)=O)c(F)c6c5)C4)CC3(F)F)cc21 (stereo not shown) [Example 171, 3-(5-(1-(2-(3-((7-(1,1-dioxido-4-oxo-1,2,5-thiadiazolidin-2-yl)-8-fluoro-6-hydroxynaphthalen-2-yl)amino)azetidin-1-yl)-2-oxoethyl)-3,3-difluoropiperidin-4-yl)-3-methyl-2-oxo-2,3-dihydro-1H-benzo[d]imidazol-1-yl)piperidine-2,6-dione] |
| 10 to 50 | 10 to 50 | Cn1c(=O)n(C2CCC(=O)NC2=O)c2ccc(-c3cnn(CC(=O)Nc4ccc5c(F)c(N6CC(=O)NS6(=O)=O)c(O)cc5c4)c3)cc21 (stereo not shown) [Example 172, 2-[4-[1-(2,6-dioxo-3-piperidyl)-3-methyl-2-oxo-benzimidazol-5-yl]pyrazol-1-yl]-N-[5-fluoro-7-hydroxy-6-(1,1,4-trioxo-1,2,5-thiadiazolidin-2-yl)-2-naphthyl]acetamide] |
| 50 to 200 | 10 to 50 | CCn1c(=O)n(C2CCC(=O)NC2=O)c2ccc(C3CCN(CC(=O)Nc4ccc5c(F)c(N6CC(=O)NS6(=O)=O)c(O)cc5c4)CC3)cc21 (stereo not shown) [Example 174, N-(6-(1,1-dioxido-4-oxo-1,2,5-thiadiazolidin-2-yl)-5-fluoro-7-hydroxynaphthalen-2-yl)-2-(4-(1-(2,6-dioxopiperidin-3-yl)-3-ethyl-2-oxo-2,3-dihydro-1H-benzo[d]imidazol-5-yl)piperidin-1-yl)acetamide] |
| 50 to 200 | 10 to 50 | Cn1c(=O)n(C2CCC(=O)NC2=O)c2ccc(-c3ccc(CC(=O)Nc4ccc5c(F)c(N6CC(=O)NS6(=O)=O)c(O)cc5c4)nc3)cc21 (stereo not shown) [Example 175, N-(6-(1,1-dioxido-4-oxo-1,2,5-thiadiazolidin-2-yl)-5-fluoro-7-hydroxynaphthalen-2-yl)-2-(5-(1-(2,6-dioxopiperidin-3-yl)-3-methyl-2-oxo-2,3-dihydro-1H-benzo[d]imidazol-5-yl)pyridin-2-yl)acetamide] |
| 50 to 200 | 10 to 50 | Cn1nc(C2CCC(=O)NC2=O)c2ccc(-c3ccc(CC(=O)Nc4ccc5c(F)c(N6CC(=O)NS6(=O)=O)c(O)cc5c4)cc3)cc21 (stereo not shown) [Example 177, N-(6-(1,1-dioxido-4-oxo-1,2,5-thiadiazolidin-2-yl)-5-fluoro-7-hydroxynaphthalen-2-yl)-2-(4-(3-(2,6-dioxopiperidin-3-yl)-1-methyl-1H-indazol-6-yl)phenyl)acetamide] |
| 10 to 50 | 10 to 50 | Cn1c(=O)n(C2CCC(=O)NC2=O)c2ccc(C3CCN(CC(=O)Nc4ccc5c(F)c(N6CC(=O)NS6(=O)=O)c(O)cc5c4)CC3F)cc21 (stereo not shown) [Example 182, 2-[4-[1-(2,6-dioxo-3-piperidyl)-3-methyl-2-oxo-benzimidazol-5-yl]-3-fluoro-1-piperidyl]-N-[5-fluoro-7-hydroxy-6-(1,1,4-trioxo-1,2,5-thiadiazolidin-2-yl)-2-naphthyl]acetamide] |
| 10 to 50 | 10 to 50 | Cn1c(=O)n(C2CCC(=O)NC2=O)c2ccc(C3CCN([C@H](CO)C(=O)Nc4ccc5c(F)c(N6CC(=O)NS6(=O)=O)c(O)cc5c4)CC3)cc21 (stereo partly drawn) [Example 183, (2R)—N-(6-(1,1-dioxido-4-oxo-1,2,5-thiadiazolidin-2-yl)-5-fluoro-7-hydroxynaphthalen-2-yl)-2-(4-(1-(2,6-dioxopiperidin-3-yl)-3-methyl-2-oxo-2,3-dihydro-1H-benzo[d]imidazol-5-yl)piperidin-1-yl)-3-hydroxypropanamide] |

From patent publication US20240383886A1, “Protein Tyrosine Phosphatase Degraders and Methods of Use Thereof” (CALICO LIFE SCIENCES LLC, priority 2019, published 2024)
